Reference: patent US20260335323A1, “CHIMERIC MOLECULE” (UCL Business Ltd, priority 2023, published 2026)

Key:
SH-SY5Y cells [1] = test: mito-mKeima mitophagy assay (mitophagy index); type: cell-based, human; conditions: for enhancement of mitophagy: co-treating with excess TSPO ligand
Method: (§1) FIG. 1. The structure of AUTAC-4 is shown in (A). (B) Representative images of SH-SY5Y cells stably expressing the mito-mKeima reporter treated with AUTAC4 for 18 h. Nuclei were stained with Hoechst 33342, healthy mitochondria are shown in green and mitochondria in lysosomes are shown in red. (C-E) Fold change in mitophagy index over time after treatment with increasing concentrations of AUTAC4 under treatment with DMSO (C), 3 mM CCCP (D) or 0.1/0.1 mM antimycin/oligomycin (E), also for 18 h. (F) Quantification of changes in mitochondrial membrane potential over time (DYm) by measuring the TMRM relative fluorescence intensity (RFI) treated with DMSO, 10 mM CCCP, 10 mM and 20 mM AUTAC4. Normalised to number of nuclei. (G) Representative western blot of SH-SY5Y cells treated with DMSO, 10 mM AUTAC4 or 10 mM AUTAC4+0.1/0.1 mM antimycin/oligomycin for 18 h and, probed for p62, b-actin and Tom20. Quantifications of western blot for changes in Tom20 and p62 levels shown in (H) and (I), respectively. (J) Representative images of PANC-1 cells stably expressing the mCherry-EGFP-LC3 tandem reporter. Nuclei stained with Hoechst 33342, autophagosomes are shown in the EGFP channel and autolysosomes in the mCherry channel. Fold change in the number of autophagosome (K) and autolysosome (L) puncta in AUTAC4 treated cells. All data shown are mean±SEM, n=3, *p<0.05, *** p<0.001. For mito-mKeima experiments, statistics were calculated by Two-way ANOVA with Tukey's multiple comparisons test. For western blots, TMRM and LC3 tandem reporter assay, statistics were calculated with one-way ANOVA with Tukey's multiple comparisons test.
FIG. 5. ULKTACs induce potent mitophagy after colocalisation and local activation of ULK1 at mitochondria (A) Representative immunofluorescence of PANC-1 cells treated with CCCP, ULKTACs or both and immunostained for TOM20 and ULK1 and counterstained with Alexa 488 and 568, respectively. Nuclei stained with Hoechst 33342. (B) Quantification of the colocalised ULK1 to TOM20 spot area of PANC-1 cells treated with DMSO, 5 mM CCCP, 10 mM BL-918, 10 mM BL-918+5 mM CCCP, […] NZ-65, […] NZ-65+5 mM CCCP, […] NZ-66, […] NZ-66+5 mM CCCP, 50 mM TSPO ligand, […] NZ-65+50 mM TSPO ligand, […] NZ-66+50 mM TSPO ligand. (C) Western blot of SH-SY5Y cells treated with 1 mM ULKTACs, 5 mM CCCP or both, probed for Mfn2, b-Actin and Tom20—quantifications are shown in (D) for Mfn2, normalised to Actin. (E) Representative images of SH-SY5Y cells stably expressing the mito-mKeima reporter treated with 3 mM CCCP, NZ-65 or both. Nuclei were stained with Hoechst 33342, healthy mitochondria are shown in green and mitochondria in lysosomes are shown in red. Fold change in mitophagy index over time after treatment for the indicated timepoints with title treatments alone or co-treated with 1.25 mM ULKTAC or 10 mM ULKTAC NZ-65 (F) or NZ-66 (G). Fold change in mitophagy index over time after treatment for the indicated timepoints with DMSO, 1.25 µM NZ-65 or NZ-66±50 µM TSPO ligand under co-treatment with DMSO (H) or 3 μM CCCP (I). […] Normalised to number of nuclei. All data shown are mean±SEM, n=3, *p<0.05, ** p<0.01, *** p<0.001. For colocalisation and TMRM experiments, one-way ANOVA with Dunnett's multiple comparisons test. For western blots, one-way ANOVA with Tukey's multiple comparisons test and unpaired t-test. For mito-mKeima experiment, two-way ANOVA with Tukey's multiple comparisons test.
SH-SY5Y stably expressing mito-mKeima were produced as previously described28,29. Cells were seeded in 384 well CellCarrier Ultra plates (PerkinElmer) 24 hours before treatment in complete media without phenol red. Cells were treated with increasing concentrations of BL-918, AUTAC4, NZ-65 or NZ-66, 24 hours prior to treatment with increasing concentrations of mitochondrial uncouplers to cause mitochondrial insult. SH-SY5Y mitochondria were treated with DMSO, 3 μM CCCP, 10 μM CCCP, 0.1/0.1 μM antimycin/oligomycin (AO), 0.5/0.5 µM AO or 1/1 μM AO. […]

SH-SY5Y cells [2] = test: TMRM assay of mitochondrial membrane potential; type: cell-based, human
Method: as §1, with “All data shown are mean±SEM, n=3, *p<0.05, *** p<0.001.” left out
FIG. 5. […] (B) Quantification of the colocalised ULK1 to TOM20 spot area of PANC-1 cells treated with DMSO, 5 mM CCCP, 10 mM BL-918, 10 mM BL-918+5 mM CCCP, […] NZ-65, […] NZ-65+5 mM CCCP, […] NZ-66, […] NZ-66+5 mM CCCP, 50 mM TSPO ligand, […] NZ-65+50 mM TSPO ligand, […] NZ-66+50 mM TSPO ligand. (C) Western blot of SH-SY5Y cells treated with 1 mM ULKTACs, 5 mM CCCP or both, probed for Mfn2, b-Actin and Tom20—quantifications are shown in (D) for Mfn2, normalised to Actin. […]

[3] = co-treatment with antimycin/oligomycin

Row | SMILES | enhancement of mitophagy (SH-SY5Y cells [1]) | enhancement of induced mitophagy (SH-SY5Y cells [1]; co-treatment with CCCP) | enhancement of induced mitophagy (SH-SY5Y cells [1]; [3]) | mitochondrial membrane potential (TMRM) (SH-SY5Y cells [2]) | induction of mitophagy (SH-SY5Y cells [1]; compound alone, higher concentrations)
1 | O=C(Nc1cc(C(F)(F)F)cc(C(F)(F)F)c1)N[C@@H](C(=O)Nc1ccc(F)cc1F)c1ccc(OCc2cn(CCCCCCNC(=O)C(=O)c3c(-c4ccccc4)[nH]c4ccccc34)nn2)cc1 [NZ-66, (R)-2-(3-(3,5-bis(trifluoromethyl)phenyl)ureido)-N-(2,4-difluorophenyl)-2-(4-((1-(6-(2-oxo-2-(2-phenyl-1H-indol-3-yl)acetamido)hexyl)-1H-1,2,3-triazol-4-yl)methoxy)phenyl) acetamide] | restricts enhancement of mitophagy | remarkably strong increases in mitophagy | remarkably strong increases in mitophagy | neither NZ-65 nor NZ-66 showed any effect | 
2 | O=C(Nc1cc(C(F)(F)F)cc(C(F)(F)F)c1)N[C@@H](C(=O)Nc1ccc(F)cc1F)c1ccc(OCc2cn(CCOCCOCCNC(=O)C(=O)c3c(-c4ccccc4)[nH]c4ccccc34)nn2)cc1 [NZ-65, (R)-2-(3-(3,5-bis(trifluoromethyl)phenyl)ureido)-N-(2,4-difluorophenyl)-2-(4-((1-(2-(2-(2-(2-oxo-2-(2-phenyl-1H-indol-3-yl)acetamido)ethoxy)ethoxy)ethyl)-1H-1,2,3-triazol-4-yl)methoxy)phenyl) acetamide] | restricts enhancement of mitophagy | remarkably strong increases in mitophagy | remarkably strong increases in mitophagy | neither NZ-65 nor NZ-66 showed any effect | 
3 | O=C(Nc1ccc(F)cc1F)[C@H](NC(=S)Nc1cc(C(F)(F)F)cc(C(F)(F)F)c1)c1ccccc1 [BL-918, reference compound] |  |  |  | depolarisation of the outer mitochondrial membrane at higher concentrations | induction of mitophagy only at higher concentrations
